Assay results reported in patent US20240398844A1, “PHENYLCOUMARINS FOR TREATING INFLAMMATION” (Ohio State Innovation Foundation, priority 2021, published 2024).
One block for each molecule: values may come before it.

Tests used:
[1] = molecular target: T1, PPAR-γ (Homo sapiens, UniProt P37231); test: PPAR-γ ELISA Assay in HeLa cells (in vitro PPAR-γ assay); assay type: cell-based; conditions: 50 μg/mL; for activation at 50 µg/mL: Table 2; for % Activation PPAR-γ: Table 4
T1 construct: endogenous in cells; host or cells: HeLa
T1 sequence (P37231 1-505): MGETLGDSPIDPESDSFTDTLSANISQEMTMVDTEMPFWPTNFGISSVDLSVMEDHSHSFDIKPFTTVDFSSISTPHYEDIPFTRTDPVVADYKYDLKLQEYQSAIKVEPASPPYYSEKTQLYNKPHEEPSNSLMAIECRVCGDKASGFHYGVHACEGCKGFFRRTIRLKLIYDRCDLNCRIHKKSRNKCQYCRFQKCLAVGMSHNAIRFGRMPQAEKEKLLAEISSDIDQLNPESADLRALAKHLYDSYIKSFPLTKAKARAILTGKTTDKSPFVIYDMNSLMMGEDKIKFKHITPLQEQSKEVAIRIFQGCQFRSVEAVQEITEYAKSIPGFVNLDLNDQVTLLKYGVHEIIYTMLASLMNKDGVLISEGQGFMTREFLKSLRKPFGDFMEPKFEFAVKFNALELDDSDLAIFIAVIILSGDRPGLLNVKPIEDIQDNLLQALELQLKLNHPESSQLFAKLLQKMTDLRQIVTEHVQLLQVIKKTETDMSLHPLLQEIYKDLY
Description: In addition to the Western blot, the diverse library was also screened in the in vitro PPAR-γ assay. […] The compounds were tested at 50 μg/mL according to the protocol detailed in section 3.2.3.

[2] = test system: HbA1C; test: Diabetic zebrafish Western blot, HbA1C expression; assay type: in vivo; conditions: diabetic zebrafish, 10 μM, library screen, FIG. 2 / FIG. 11
Description: (§1) Alloxan-induced diabetic zebrafish were treated with compounds for immunoblot to validate the newly developed animal model, determine the antidiabetic potential of natural product leads, evaluate glucose metabolism, and discover possible mechanisms of action.
(§2) At 72 hpf, naturally dechorionated zebrafish were sorted into a 24-well microplate with 10 fish per well. Type 2 diabetes was induced with the diabetogenic agent alloxan at a dose of 0.5 mg/mL in system water for 3 hours. […] After 3 hours of treatment with natural product samples, 10 mg/mL D-glucose was administered in system water for 30 minutes, followed by 1 hour in fresh system water to metabolize the glucose and natural product leads. Upon completion of the 4-phase treatment cycle, zebrafish treatment groups were snap frozen into individual microcentrifuge tubes on dry ice, stored overnight at −80° C., thawed, homogenized with 2 μL PBS per animal, and centrifuged at 4° C. for 1 hour at 17,000 rpm. Protein content of homogenate supernatant was determined using the Pierce BCA Protein Assay kit (Pierce Biotechnology) and bovine serum albumin (BSA) standard curve. Absorbance of protein solutions from zebrafish homogenates and serial dilutions of the BSA standard were measured at 544 nm, using a FLUOstar Optima plate reader (BMG Labtechnologies GmbH, Inc.). Homogenates were analyzed by Western blot. Equal amounts of protein (20 μg) were combined with 4× lithium dodecyl sulphate (LDS) loading buffer (NuPAGE, Life Technologies, Carlsbad, CA, USA), brought to volume (15 μL) with PBS, and heated to 95° C. for 5 minutes. Proteins were resolved using NuPAGE Bis-Tris 4-12% gradient sodium dodecyl sulfate polyacrylamide gel electrophoresis (SDS-PAGE) gels together with SeeBlue Plus2 Pre-Stained Standard Ladder (Life Technologies).
(§3) Electrophoresis was performed using NuPAGE MES SDS Running Buffer and XCell SureLock Mini-Cell Electrophoresis System (Life Technologies). Separated proteins were transferred from the gel to a polyvinylidene fluoride (PVDF) membrane using tris buffered saline with Tween-20 (TBST) buffer. The blots were blocked in 3% BSA in TBST and subsequently probed using primary antibodies (1:1000 in 1% BSA in TBST) against each target overnight (Table 1). The secondary, horseradish peroxidase (HRP) conjugated antibodies (1:2000) were obtained from Santa Cruz Biotechnology Inc., (Santa Cruz, CA, USA). Conjugated antibodies were detected using SuperSignal West Femto chemiluminescent substrate from Pierce Biotechnology. Western blots were visualized, and images captured using a luminometer and LumiAnalyst 3.0 software (Boehringer-Mannheim, Mannheim, Germany). Band density was quantified for proteins of interest using ImageJ Gel Analysis.
(§4) In the case of duplicate blots, the band density results were expressed in bar graphs as the mean±standard error of the mean (SEM) of two independent experiments. Due to the labor- and time-intensive aspect of Western blot analysis with multiple target proteins, a maximum of two independent immunoblot experiments were performed per compared sample set. […] Additionally, treatment groups were also evaluated versus the diabetic, untreated control group for significance by Student's f-test and indicated in the bar graphs with p values represented by *p<0.05, **p<0.01, and ***p<0.001. […]

[3] = test system: PEPCK; test: Diabetic zebrafish Western blot, PEPCK expression; assay type: in vivo; conditions: 10 μM, library screen, FIG. 4 / FIG. 11
Description: as §1
(§5) At 72 hpf, naturally dechorionated zebrafish were sorted into a 24-well microplate with 10 fish per well. Type 2 diabetes was induced with the diabetogenic agent alloxan at a dose of 0.5 mg/mL in system water for 3 hours. The incubation solution was changed to 0.01% DMSO in system water with compounds at concentrations of 20 μg/mL or […], respectively. After 3 hours of treatment with natural product samples, 10 mg/mL D-glucose was administered in system water for 30 minutes, followed by 1 hour in fresh system water to metabolize the glucose and natural product leads. Upon completion of the 4-phase treatment cycle, zebrafish treatment groups were snap frozen into individual microcentrifuge tubes on dry ice, stored overnight at −80° C., thawed, homogenized with 2 μL PBS per animal, and centrifuged at 4° C. for 1 hour at 17,000 rpm. Protein content of homogenate supernatant was determined using the Pierce BCA Protein Assay kit (Pierce Biotechnology) and bovine serum albumin (BSA) standard curve. Absorbance of protein solutions from zebrafish homogenates and serial dilutions of the BSA standard were measured at 544 nm, using a FLUOstar Optima plate reader (BMG Labtechnologies GmbH, Inc.). Homogenates were analyzed by Western blot. Equal amounts of protein (20 μg) were combined with 4× lithium dodecyl sulphate (LDS) loading buffer (NuPAGE, Life Technologies, Carlsbad, CA, USA), brought to volume (15 μL) with PBS, and heated to 95° C. for 5 minutes. Proteins were resolved using NuPAGE Bis-Tris 4-12% gradient sodium dodecyl sulfate polyacrylamide gel electrophoresis (SDS-PAGE) gels together with SeeBlue Plus2 Pre-Stained Standard Ladder (Life Technologies).
as §3, with “Western blots were visualized, and images captured using a luminometer and LumiAnalyst 3.0 software (Boehringer-Mannheim, Mannheim, Germany).” left out, “Analysis. […]” for “Analysis.”

[4] = test system: NFκB p65; test: Diabetic zebrafish Western blot, NFκB expression; assay type: in vivo; conditions: diabetic zebrafish, 10 μM, FIG. 5
Description: as §1, §2, §3, §4

[5] = test system: GLUT-4; test: Diabetic zebrafish Western blot, GLUT-4 expression; assay type: in vivo; conditions: 10 μM, FIG. 5
Description: as §1
as §5, with “Proteins were resolved using NuPAGE Bis-Tris 4-12% gradient sodium dodecyl sulfate polyacrylamide gel electrophoresis (SDS-PAGE) gels together with SeeBlue Plus2 Pre-Stained Standard Ladder (Life Technologies).” left out
Electrophoresis was performed using NuPAGE MES SDS Running Buffer and XCell SureLock Mini-Cell Electrophoresis System (Life Technologies). […] Conjugated antibodies were detected using SuperSignal West Femto chemiluminescent substrate from Pierce Biotechnology. […] Band density was quantified for proteins of interest using ImageJ Gel Analysis. […]

Compound: Oc1cccc(CCc2ccc3c(c2)OCO3)c1 [Compound 16]
activation at 50 µg/mL [1]: 0%

Compound: COc1ccc(-c2cc(=O)c3c(O)cc(O)cc3o2)cc1 [Compound 17]
activation at 50 µg/mL [1]: 0%

Compound: COc1cc(O)c2c(c1)OC(c1ccc(O)cc1)CC2=O (stereo not drawn) [Compound 19]
activation at 50 µg/mL [1]: 77%
HbA1C expression (Western blot band density) [2]: lowest glycated hemoglobin levels

Compound: O=c1cc(-c2ccc(O)cc2)oc2c([C@H]3OC(CO)[C@@H](O)[C@H](O)C3O)c(O)cc(O)c12 (stereo partly drawn) [Compound 21]
activation at 50 µg/mL [1]: 57%
HbA1C expression (Western blot band density) [2]: lowest glycated hemoglobin levels

activation at 50 µg/mL [1]: 21%
% Activation PPAR-γ [1]: 21%
Compound: COc1cc(O[C@@H]2OC(CO)[C@H](O)[C@H](O)C2O)c2c(-c3ccc(O)c(O)c3)cc(=O)oc2c1 (stereo partly drawn) [Compound 22]
PEPCK expression (Western blot band density) [3]: 31>rosiglitazone>22>23 and greatest PEPCK expression
NFκB expression (Western blot) [4]: excellent inhibition of NFκB expression
GLUT-4 expression (Western blot) [5]: strong GLUT-4 expression

activation at 50 µg/mL [1]: 145%
% Activation PPAR-γ [1]: 145%
PPAR-γ activity in the in vitro assay (in words) ([1]; versus positive control rosiglitazone): top performers
Compound: COc1cc(O[C@@H]2OC(CO)[C@@H](O)[C@H](O)C2O)c2c(-c3ccc(O)c(O)c3)cc(=O)oc2c1 (stereo partly drawn) [Compound 23]
PEPCK expression (Western blot band density) [3]: 31>rosiglitazone>22>23
NFκB expression (Western blot) [4]: excellent inhibition of NFκB expression
GLUT-4 expression (Western blot) [5]: strong GLUT-4 expression

Compound: CC(C)(O)CCC(=O)[C@](C)(O)[C@H]1[C@H](O)C[C@@]2(C)C3CC=C4[C@@H](CC(O)[C@H](O[C@@H]5OC(CO)[C@@H](O)[C@H](O)C5O)C4(C)C)C3C(=O)C[C@@]12C (stereo partly drawn) [Compound 27]
activation at 50 µg/mL [1]: 65%

Compound: C[C@]12C[C@@H](O)CC3(CCC4[C@@](C)(CCC[C@@]4(C)C(=O)O[C@@H]4OC(CO)[C@@H](O[C@@H]5OC[C@H](O)[C@H](O)C5O)[C@H](O)C4O)C3C(=O)O1)C2 (stereo partly drawn) [Compound 28]
activation at 50 µg/mL [1]: 0%

Compound: C=C1CC[C@H]2C(=C)CC[C@H]3C(=C)C(=O)O[C@@H]3[C@@H]12 [Compound 29]
activation at 50 µg/mL [1]: 0%

Compound: C/C=C/C1=CC=C/C(=C2/C(=O)CCNC2=O)O1 [Compound 30]
activation at 50 µg/mL [1]: 37%
